Where “and” joins values, the source holds several entries; their conditions need not be identical. Identical values can stand only once.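 Five compound concentrations were applied to cells in 96-well plates for 48 hours; endpoints were derived by simple linear interpolation of the resulting dose-response curve. Abbreviation: GI50, concentration required for 50% inhibition of growth. The concentration for full growth arrest is given as TGI.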

The test system of the first test is OVCAR-8 ovarian. Kind of test: NCI tumour cell line growth inhibition, 48 h.
Regarding `COc1ccc(-c2oc3cc(O)c(OC)c(O)c3c(=O)c2OC)cc1O`, the GI50 was 0.375 µM and the TGI is greater than 100 µM.

Turning to `C[C@@]12CCCc3coc(c31)C(=O)c1cc3c(cc12)C(=O)C=CC3=O`, the GI50 was greater than 1 µM; the TGI was > 1 µM and 29.1 µM.

On to `C=CCNC(=O)N(CCC)CCCCC(NC(C)=O)C(=O)NCc1ccccc1` (centres undefined), for which the TGI was greater than 100 µM.

Regarding `COC(=O)/C(C=O)=C/Sc1ccccc1`, the TGI stood at 31.8 µM.

`CC1(C)O/C(=C\c2ccccc2)C(=O)/C(=C/c2ccccc2)O1` returned a TGI greater than 100 µM.

Compound `O=C1CC2C(=O)N(Cc3ccccc3)C1C=C2S(=O)(=O)c1ccccc1` (centres undefined) had a TGI greater than 100 µM.

`O=c1[nH]c2cc(Cl)ccc2nc1/C(=N\O)C(O)c1ccc(Cl)cc1Cl` (centres undefined) registered a TGI greater than 100 µM.

Turning to `O=C(Nc1cc(Cl)ccc1Cl)C(=O)C(c1cnc2ccccc2n1)[N+](=O)[O-]` (centres undefined), the TGI was greater than 100 µM.

On to `COC(=O)CCC(=O)CC1CC(=O)C2CCCN12` (centres undefined), for which the TGI was greater than 100 µM.

As to `CCCCC1(CN2CCOCC2)S/C(=N/c2nc(CC(=O)OCC)cs2)NC1=O` (centres undefined), the GI50 was 33.9 µM and the TGI is greater than 100 µM.

In the case of `CN[C@@H](C)[C@H](NC)c1ccccc1`, the TGI was greater than 100 µM.

For another test, the system named is HL-60(TB) leukemia. Kind of test: NCI tumour cell line growth inhibition, 48 h.
Take `COc1ccc(-c2oc3cc(O)c(OC)c(O)c3c(=O)c2OC)cc1O`: the GI50 is 0.0275 µM and the TGI amounted to 0.212 µM.

Take `C[C@@]12CCCc3coc(c31)C(=O)c1cc3c(cc12)C(=O)C=CC3=O`: the GI50 is greater than 1 µM and the TGI was greater than 100 µM.

With `C=CCNC(=O)N(CCC)CCCCC(NC(C)=O)C(=O)NCc1ccccc1` (centres undefined), the TGI is greater than 100 µM.

For `COC(=O)/C(C=O)=C/Sc1ccccc1`, the TGI is greater than 100 µM.

Compound `CC1(C)O/C(=C\c2ccccc2)C(=O)/C(=C/c2ccccc2)O1` displayed a TGI of 29.4 µM.

Consider `O=C1CC2C(=O)N(Cc3ccccc3)C1C=C2S(=O)(=O)c1ccccc1` (centres undefined), for which the TGI was greater than 100 µM.

As for `O=c1[nH]c2cc(Cl)ccc2nc1/C(=N\O)C(O)c1ccc(Cl)cc1Cl` (centres undefined), the TGI is greater than 100 µM.

On to `O=C(Nc1cc(Cl)ccc1Cl)C(=O)C(c1cnc2ccccc2n1)[N+](=O)[O-]` (centres undefined), for which the TGI was greater than 100 µM.

In turn, `COC(=O)CCC(=O)CC1CC(=O)C2CCCN12` (centres undefined) showed a TGI greater than 100 µM.

Regarding `CCCCC1(CN2CCOCC2)S/C(=N/c2nc(CC(=O)OCC)cs2)NC1=O` (centres undefined), the GI50 was 30.2 µM and the TGI turned out to be 62.5 µM.

As to `CN[C@@H](C)[C@H](NC)c1ccccc1`, the TGI was greater than 100 µM.

The subject of another test is UO-31 renal. Kind of test: NCI tumour cell line growth inhibition, 48 h.
For `C[C@@]12CCCc3coc(c31)C(=O)c1cc3c(cc12)C(=O)C=CC3=O`, the GI50 was greater than 1 µM; the TGI was > 1 µM and 29.7 µM.

In turn, `C=CCNC(=O)N(CCC)CCCCC(NC(C)=O)C(=O)NCc1ccccc1` (centres undefined) came in with a TGI greater than 100 µM.

As for `COC(=O)/C(C=O)=C/Sc1ccccc1`, the TGI was 30.7 µM.

On to `CC1(C)O/C(=C\c2ccccc2)C(=O)/C(=C/c2ccccc2)O1`, for which the TGI was greater than 100 µM.

For the compound `O=C1CC2C(=O)N(Cc3ccccc3)C1C=C2S(=O)(=O)c1ccccc1` (centres undefined), the TGI was greater than 100 µM.

Take `O=c1[nH]c2cc(Cl)ccc2nc1/C(=N\O)C(O)c1ccc(Cl)cc1Cl` (centres undefined): the TGI is greater than 100 µM.

In turn, `O=C(Nc1cc(Cl)ccc1Cl)C(=O)C(c1cnc2ccccc2n1)[N+](=O)[O-]` (centres undefined) showed a TGI greater than 100 µM.

The compound `COC(=O)CCC(=O)CC1CC(=O)C2CCCN12` (centres undefined) displayed a TGI greater than 100 µM.

As to `CCCCC1(CN2CCOCC2)S/C(=N/c2nc(CC(=O)OCC)cs2)NC1=O` (centres undefined), the GI50 was 33 µM and the TGI was greater than 100 µM.

For the compound `CN[C@@H](C)[C@H](NC)c1ccccc1`, the TGI was greater than 100 µM.

A further test relates to RXF 393 renal. In words: NCI tumour cell line growth inhibition, 48 h.
As for `COc1ccc(-c2oc3cc(O)c(OC)c(O)c3c(=O)c2OC)cc1O`, the GI50 was 0.171 µM and the TGI is greater than 100 µM.

For `C[C@@]12CCCc3coc(c31)C(=O)c1cc3c(cc12)C(=O)C=CC3=O`, the GI50 was greater than 1 µM; the TGI was > 1 µM and 29.1 µM.

For `C=CCNC(=O)N(CCC)CCCCC(NC(C)=O)C(=O)NCc1ccccc1` (centres undefined), the TGI is greater than 100 µM.

In the case of `COC(=O)/C(C=O)=C/Sc1ccccc1`, the TGI stood at 51.7 µM.

`CC1(C)O/C(=C\c2ccccc2)C(=O)/C(=C/c2ccccc2)O1`: the TGI amounted to 47.6 µM.

`O=C1CC2C(=O)N(Cc3ccccc3)C1C=C2S(=O)(=O)c1ccccc1` (centres undefined): the TGI is greater than 100 µM.

In the case of `O=c1[nH]c2cc(Cl)ccc2nc1/C(=N\O)C(O)c1ccc(Cl)cc1Cl` (centres undefined), the TGI is greater than 100 µM.

Compound `O=C(Nc1cc(Cl)ccc1Cl)C(=O)C(c1cnc2ccccc2n1)[N+](=O)[O-]` (centres undefined) showed a TGI greater than 100 µM.

`COC(=O)CCC(=O)CC1CC(=O)C2CCCN12` (centres undefined) registered a TGI greater than 100 µM.

`CCCCC1(CN2CCOCC2)S/C(=N/c2nc(CC(=O)OCC)cs2)NC1=O` (centres undefined): the GI50 was 27.6 µM and the TGI was 86.1 µM.

The compound `CN[C@@H](C)[C@H](NC)c1ccccc1` returned a TGI greater than 100 µM.

The next test has as its system NCI-H23 lung. Kind of test: NCI tumour cell line growth inhibition, 48 h.
Regarding `COc1ccc(-c2oc3cc(O)c(OC)c(O)c3c(=O)c2OC)cc1O`, the GI50 is 0.443 µM and the TGI is greater than 100 µM.

With `C[C@@]12CCCc3coc(c31)C(=O)c1cc3c(cc12)C(=O)C=CC3=O`, the TGI was found to be 29.7 µM.

For `C=CCNC(=O)N(CCC)CCCCC(NC(C)=O)C(=O)NCc1ccccc1` (centres undefined), the TGI is greater than 100 µM.

The compound `COC(=O)/C(C=O)=C/Sc1ccccc1` registered a TGI greater than 100 µM.

In the case of `CC1(C)O/C(=C\c2ccccc2)C(=O)/C(=C/c2ccccc2)O1`, the TGI is greater than 100 µM.

`O=C1CC2C(=O)N(Cc3ccccc3)C1C=C2S(=O)(=O)c1ccccc1` (centres undefined) yielded a TGI greater than 100 µM.

The compound `O=c1[nH]c2cc(Cl)ccc2nc1/C(=N\O)C(O)c1ccc(Cl)cc1Cl` (centres undefined) had a TGI greater than 100 µM.

`O=C(Nc1cc(Cl)ccc1Cl)C(=O)C(c1cnc2ccccc2n1)[N+](=O)[O-]` (centres undefined) yielded a TGI greater than 100 µM.

Consider `COC(=O)CCC(=O)CC1CC(=O)C2CCCN12` (centres undefined), for which the TGI is greater than 100 µM.

Take `CN[C@@H](C)[C@H](NC)c1ccccc1`: the TGI was greater than 100 µM.

The next test relates to DU-145 prostate. In words: NCI tumour cell line growth inhibition, 48 h.
As to `CCCCC1(CN2CCOCC2)S/C(=N/c2nc(CC(=O)OCC)cs2)NC1=O` (centres undefined), the GI50 was 27 µM and the TGI is greater than 100 µM.

Another test relates to SNB-75 CNS. Kind of test: NCI tumour cell line growth inhibition, 48 h.
Take `C[C@@]12CCCc3coc(c31)C(=O)c1cc3c(cc12)C(=O)C=CC3=O`: the GI50 is greater than 1 µM; the TGI is > 1 µM and 38.2 µM.

Consider `C=CCNC(=O)N(CCC)CCCCC(NC(C)=O)C(=O)NCc1ccccc1` (centres undefined), for which the TGI was greater than 100 µM.

On to `COC(=O)/C(C=O)=C/Sc1ccccc1`, for which the TGI was determined as 50.9 µM.

For `CC1(C)O/C(=C\c2ccccc2)C(=O)/C(=C/c2ccccc2)O1`, the TGI was greater than 100 µM.

Consider `O=C1CC2C(=O)N(Cc3ccccc3)C1C=C2S(=O)(=O)c1ccccc1` (centres undefined), for which the TGI was greater than 100 µM.

Consider `O=c1[nH]c2cc(Cl)ccc2nc1/C(=N\O)C(O)c1ccc(Cl)cc1Cl` (centres undefined), for which the TGI was greater than 100 µM.

For the compound `O=C(Nc1cc(Cl)ccc1Cl)C(=O)C(c1cnc2ccccc2n1)[N+](=O)[O-]` (centres undefined), the TGI was greater than 100 µM.

Turning to `COC(=O)CCC(=O)CC1CC(=O)C2CCCN12` (centres undefined), the TGI is greater than 100 µM.

`CCCCC1(CN2CCOCC2)S/C(=N/c2nc(CC(=O)OCC)cs2)NC1=O` (centres undefined): the GI50 is 29.4 µM and the TGI is greater than 100 µM.

In turn, `CN[C@@H](C)[C@H](NC)c1ccccc1` registered a TGI greater than 100 µM.

The next test has as its system A549 NSCLC. Kind of test: NCI tumour cell line growth inhibition, 48 h.
Take `COc1ccc(-c2oc3cc(O)c(OC)c(O)c3c(=O)c2OC)cc1O`: the GI50 is 1.07 µM and the TGI is greater than 100 µM.

In the case of `C[C@@]12CCCc3coc(c31)C(=O)c1cc3c(cc12)C(=O)C=CC3=O`, the GI50 is greater than 1 µM; the TGI is > 1 µM and 51.4 µM.

Turning to `C=CCNC(=O)N(CCC)CCCCC(NC(C)=O)C(=O)NCc1ccccc1` (centres undefined), the TGI was greater than 100 µM.

Take `COC(=O)/C(C=O)=C/Sc1ccccc1`: the TGI was greater than 100 µM.

As to `CC1(C)O/C(=C\c2ccccc2)C(=O)/C(=C/c2ccccc2)O1`, the TGI was greater than 100 µM.

`O=C1CC2C(=O)N(Cc3ccccc3)C1C=C2S(=O)(=O)c1ccccc1` (centres undefined): the TGI was greater than 100 µM.

As to `O=c1[nH]c2cc(Cl)ccc2nc1/C(=N\O)C(O)c1ccc(Cl)cc1Cl` (centres undefined), the TGI is greater than 100 µM.

As for `O=C(Nc1cc(Cl)ccc1Cl)C(=O)C(c1cnc2ccccc2n1)[N+](=O)[O-]` (centres undefined), the TGI is greater than 100 µM.

Compound `COC(=O)CCC(=O)CC1CC(=O)C2CCCN12` (centres undefined) came in with a TGI greater than 100 µM.

Consider `CCCCC1(CN2CCOCC2)S/C(=N/c2nc(CC(=O)OCC)cs2)NC1=O` (centres undefined), for which the GI50 was 33.4 µM and the TGI was greater than 100 µM.

In turn, `CN[C@@H](C)[C@H](NC)c1ccccc1` returned a TGI greater than 100 µM.

The subject of another test is PC-3 prostate. In words: NCI tumour cell line growth inhibition, 48 h.
Take `COc1ccc(-c2oc3cc(O)c(OC)c(O)c3c(=O)c2OC)cc1O`: the GI50 was 4.44 µM and the TGI is greater than 100 µM.

The next test relates to HOP-92 NSCLC. Kind of test: NCI tumour cell line growth inhibition, 48 h.
Turning to `COc1ccc(-c2oc3cc(O)c(OC)c(O)c3c(=O)c2OC)cc1O`, the GI50 is 3.46 µM and the TGI was greater than 100 µM.

Turning to `C[C@@]12CCCc3coc(c31)C(=O)c1cc3c(cc12)C(=O)C=CC3=O`, the GI50 was greater than 1 µM; the TGI is > 1 µM and 14.6 µM.

Take `C=CCNC(=O)N(CCC)CCCCC(NC(C)=O)C(=O)NCc1ccccc1` (centres undefined): the TGI was greater than 100 µM.

As to `COC(=O)/C(C=O)=C/Sc1ccccc1`, the TGI was greater than 100 µM.

As for `CC1(C)O/C(=C\c2ccccc2)C(=O)/C(=C/c2ccccc2)O1`, the TGI is greater than 100 µM.

As to `O=C1CC2C(=O)N(Cc3ccccc3)C1C=C2S(=O)(=O)c1ccccc1` (centres undefined), the TGI is greater than 100 µM.

Take `O=c1[nH]c2cc(Cl)ccc2nc1/C(=N\O)C(O)c1ccc(Cl)cc1Cl` (centres undefined): the TGI is greater than 100 µM.

In the case of `O=C(Nc1cc(Cl)ccc1Cl)C(=O)C(c1cnc2ccccc2n1)[N+](=O)[O-]` (centres undefined), the TGI is greater than 100 µM.

For the compound `COC(=O)CCC(=O)CC1CC(=O)C2CCCN12` (centres undefined), the TGI is greater than 100 µM.

For `CCCCC1(CN2CCOCC2)S/C(=N/c2nc(CC(=O)OCC)cs2)NC1=O` (centres undefined), the GI50 was 32.9 µM and the TGI is greater than 100 µM.

`CN[C@@H](C)[C@H](NC)c1ccccc1` registered a TGI greater than 100 µM.

(Values after PubChem BioAssay (NCI).)
